Test results reported in the supplement of paper PMC10627819.

Key:
[1] = test system: B. subtilis 168; assay: Bliss interaction score (quartile over a dose matrix) (fitness difference); higher = more antagonism (negative = synergy)
In short: (§1)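 Growth was read as OD595 when cultures entered stationary phase, and each value was divided by the plate's robust no-drug mean and capped at 1. This normalised ratio is the fitness value, and fitness for each single drug came from the combination data. The Bliss score subtracts the expected fitness, taken as the product, from the observed fitness and is given as quartiles across technical, biological and donor/recipient replicates.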

[2] = test system: S. aureus DSM 20231; assay: as above
In short: as §1

[3] = test system: S. aureus Newman; assay: as above
In short: as §1

[4] = test system: S. pneumoniae D39V; assay: as above
In short: as §1

[5] = test system: S. pneumoniae D39V; assay: fitness (endpoint OD595 vs no drug) (fraction); higher = more growth
In short: (§2)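 Fitness expresses the optical density reached at the stationary-phase transition as a fraction of the robust mean of no-drug control wells. It is capped at 1. Measurements were OD595 every 30 min for 14 h at 37 °C after inoculation of 384-well plates at OD595 0.01 (30 µl, or 55 µl for S. pneumoniae), minus the first reading.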

[6] = test system: B. subtilis 168; assay: as above; conditions: main component drawn
In short: as §2
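For Bliss interaction score (quartile over a dose matrix) in this document: first quartile when negative (synergy) and third quartile when positive (antagonism).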
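For fitness (endpoint OD595 vs no drug) in this document: OD595 on entry to stationary phase over no-drug wells; at most 1.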

## Clc1ccc(COC(Cn2ccnc2)c2ccc(Cl)cc2Cl)c(Cl)c1 (stereo unspecified) [Miconazole] + Cn1nnc(-c2ccc(-c3ccc(N4C[C@H](CO)OC4=O)cc3F)cn2)n1 [Tedizolid]
[1]
  Bliss interaction score: 0.0402
[2]
  Bliss interaction score: 0.0592
[3]
  Bliss interaction score: 0.0625
[4]
  Bliss interaction score: -0.0671
[5]; first compound 1.073 µg/mL, partner 0.125 µg/mL
  fitness: 0.872
[5]; first compound 1.073 µg/mL, partner 0.25 µg/mL
  fitness: 0.729
[5]; first compound 1.073 µg/mL, partner 0.5 µg/mL
  fitness: 0.413
[5]; first compound 1.25 µg/mL, partner 0.03125 µg/mL
  fitness: 0.96
[5]; first compound 1.25 µg/mL, partner 0.0625 µg/mL
  fitness: 0.968
[5]; first compound 1.25 µg/mL, partner 0.125 µg/mL
  fitness: 0.797
[5]; first compound 2.145 µg/mL, partner 0.125 µg/mL
  fitness: 0.937
[5]; first compound 2.145 µg/mL, partner 0.25 µg/mL
  fitness: 0.778
[5]; first compound 2.145 µg/mL, partner 0.5 µg/mL
  fitness: 0.402
[5]; first compound 2.5 µg/mL, partner 0.03125 µg/mL
  fitness: 0.97
[5]; first compound 2.5 µg/mL, partner 0.0625 µg/mL
  fitness: 0.929
[5]; first compound 2.5 µg/mL, partner 0.125 µg/mL
  fitness: 0.797
[5]; first compound 4.29 µg/mL, partner 0.125 µg/mL
  fitness: 0.943
[5]; first compound 4.29 µg/mL, partner 0.25 µg/mL
  fitness: 0.829
[5]; first compound 4.29 µg/mL, partner 0.5 µg/mL
  fitness: 0.489
[5]; first compound 5 µg/mL, partner 0.03125 µg/mL
  fitness: 0.925
[5]; first compound 5 µg/mL, partner 0.0625 µg/mL
  fitness: 0.934
[5]; first compound 5 µg/mL, partner 0.125 µg/mL
  fitness: 0.746

## Clc1ccc(COC(Cn2ccnc2)c2ccc(Cl)cc2Cl)c(Cl)c1 (stereo unspecified) [Miconazole] + O=C1CN(/N=C/c2ccc([N+](=O)[O-])o2)C(=O)N1 [Nitrofurantoin]
[1]
  Bliss interaction score: -0.125
[2]
  Bliss interaction score: 0.0458
[3]
  Bliss interaction score: -0.0579
[4]
  Bliss interaction score: 0.091
[5]; first compound 1.073 µg/mL, partner 2 µg/mL
  fitness: 0.972
[5]; first compound 1.073 µg/mL, partner 4 µg/mL
  fitness: 0.988
[5]; first compound 1.073 µg/mL, partner 8 µg/mL
  fitness: 0.92
[5]; first compound 1.25 µg/mL, partner 1.285 µg/mL
  fitness: 0.987
[5]; first compound 1.25 µg/mL, partner 2.57 µg/mL
  fitness: 0.968
[5]; first compound 1.25 µg/mL, partner 5.14 µg/mL, one replicate
  fitness: 0.897
[5]; first compound 2.145 µg/mL, partner 2 µg/mL
  fitness: ≥ 1
[5]; first compound 2.145 µg/mL, partner 4 µg/mL
  fitness: ≥ 1
[5]; first compound 2.145 µg/mL, partner 8 µg/mL
  fitness: 0.951
[5]; first compound 2.5 µg/mL, partner 1.285 µg/mL
  fitness: 0.959
[5]; first compound 2.5 µg/mL, partner 2.57 µg/mL
  fitness: 0.954
[5]; first compound 2.5 µg/mL, partner 5.14 µg/mL, one replicate
  fitness: 0.848
[5]; first compound 4.29 µg/mL, partner 2 µg/mL
  fitness: 0.93
[5]; first compound 4.29 µg/mL, partner 4 µg/mL
  fitness: 0.949
[5]; first compound 4.29 µg/mL, partner 8 µg/mL
  fitness: 0.919
[5]; first compound 5 µg/mL, partner 1.285 µg/mL
  fitness: 0.945
[5]; first compound 5 µg/mL, partner 2.57 µg/mL
  fitness: 0.936
[5]; first compound 5 µg/mL, partner 5.14 µg/mL, one replicate
  fitness: 0.847

## CNC(C)C1CCC(N)C(OC2C(N)CC(N)C(OC3OCC(C)(O)C(NC)C3O)C2O)O1 (stereo unspecified) [Gentamicin] + COc1cc(Cc2cnc(N)nc2N)cc(OC)c1OC [Trimethoprim]
[1]; main component drawn
  Bliss interaction score: -0.201
[2]; main component drawn
  Bliss interaction score: -0.0371
[3]; main component drawn
  Bliss interaction score: 0.0637
[4]; main component drawn
  Bliss interaction score: -0.193
[6]; first compound 0.0625 µg/mL, partner 0.1 µg/mL, one replicate
  fitness: 0.953
[6]; first compound 0.0625 µg/mL, partner 0.125 µg/mL
  fitness: 0.661
[6]; first compound 0.0625 µg/mL, partner 0.2 µg/mL, one replicate
  fitness: 0.787
[6]; first compound 0.0625 µg/mL, partner 0.25 µg/mL
  fitness: 0.53
[6]; first compound 0.0625 µg/mL, partner 0.4 µg/mL, one replicate
  fitness: 0.539
[6]; first compound 0.0625 µg/mL, partner 1 µg/mL, one replicate
  fitness: 0.0449
[6]; first compound 0.0625 µg/mL, partner 2 µg/mL, one replicate
  fitness: 0.0512
[6]; first compound 0.125 µg/mL, partner 0.1 µg/mL, one replicate
  fitness: 0.716
[6]; first compound 0.125 µg/mL, partner 0.125 µg/mL
  fitness: 0.548
[6]; first compound 0.125 µg/mL, partner 0.2 µg/mL, one replicate
  fitness: 0.294
[6]; first compound 0.125 µg/mL, partner 0.4 µg/mL, one replicate
  fitness: 0.0552
[6]; first compound 0.125 µg/mL, partner 1 µg/mL, one replicate
  fitness: 0.0304
[6]; first compound 0.125 µg/mL, partner 2 µg/mL, one replicate
  fitness: 0.0461
[6]; first compound 0.25 µg/mL, partner 0.1 µg/mL, one replicate
  fitness: 0.0356
[6]; first compound 0.25 µg/mL, partner 0.125 µg/mL
  fitness: 0.0923
[6]; first compound 0.25 µg/mL, partner 0.2 µg/mL, one replicate
  fitness: 0.0576
[6]; first compound 0.25 µg/mL, partner 0.25 µg/mL
  fitness: 0.0847
[6]; first compound 0.25 µg/mL, partner 0.4 µg/mL, one replicate
  fitness: 0.0438
[6]; first compound 0.25 µg/mL, partner 0.5 µg/mL
  fitness: 0.041
[6]; first compound 0.25 µg/mL, partner 1 µg/mL, one replicate
  fitness: 0.0435
[6]; first compound 0.25 µg/mL, partner 2 µg/mL, one replicate
  fitness: 0.0503

## Clc1ccc(COC(Cn2ccnc2)c2ccc(Cl)cc2Cl)c(Cl)c1 (stereo unspecified) [Miconazole] + CCC(C)C1C(=O)NC(=C)C(=O)NC(C(=O)NC(CSCC(C(=O)N1)NC(=O)/C(=C/C)/NC(=O)C(C(C)CC)N)C(=O)NC2C(SCC(NC(=O)CNC(=O)C3CCCN3C2=O)C(=O)NC(CCCCN)C(=O)NC4C(SCC(NC(=O)CNC(=O)C(NC(=O)C(NC(=O)C(NC(=O)CNC4=O)C)CC(C)C)CCSC)C(=O)NC(CC(=O)N)C(=O)NC(CCSC)C(=O)NC(CCCCN)C(=O)NC5C(SCC6C(=O)NC(C(=O)NC(CSC(C(C(=O)N6)NC(=O)C(NC5=O)C)C)C(=O)NC(CO)C(=O)NC(C(C)CC)C(=O)NC(CC7=CN=CN7)C(=O)NC(C(C)C)C(=O)NC(=C)C(=O)NC(CCCCN)C(=O)O)CC8=CN=CN8)C)C)C)CC(C)C [Nisin]
[1]; main component drawn
  Bliss interaction score: 0.0476
[2]; main component drawn
  Bliss interaction score: -0.0527
[3]; main component drawn
  Bliss interaction score: -0.0601
[4]; main component drawn
  Bliss interaction score: 0.166
[5]; first compound 1.073 µg/mL, partner 1.6 µg/mL, main component drawn
  fitness: 0.264
[5]; first compound 1.073 µg/mL, partner 3.2 µg/mL, main component drawn
  fitness: 0.0113
[5]; first compound 1.073 µg/mL, partner 6.4 µg/mL, main component drawn
  fitness: 0.0029
[5]; first compound 1.25 µg/mL, partner 0.4275 µg/mL, main component drawn
  fitness: 0.979
[5]; first compound 1.25 µg/mL, partner 0.855 µg/mL, main component drawn
  fitness: 0.973
[5]; first compound 1.25 µg/mL, partner 1.71 µg/mL, main component drawn
  fitness: 0.0702
[5]; first compound 2.145 µg/mL, partner 1.6 µg/mL, main component drawn
  fitness: 0.16
[5]; first compound 2.145 µg/mL, partner 3.2 µg/mL, main component drawn
  fitness: 0.0171
[5]; first compound 2.145 µg/mL, partner 6.4 µg/mL, main component drawn
  fitness: 0.0131
[5]; first compound 2.5 µg/mL, partner 0.4275 µg/mL, main component drawn
  fitness: 0.998
[5]; first compound 2.5 µg/mL, partner 0.855 µg/mL, main component drawn
  fitness: 0.965
[5]; first compound 2.5 µg/mL, partner 1.71 µg/mL, main component drawn
  fitness: 0.146
[5]; first compound 4.29 µg/mL, partner 1.6 µg/mL, main component drawn
  fitness: 0.172
[5]; first compound 4.29 µg/mL, partner 3.2 µg/mL, main component drawn
  fitness: 0.151
[5]; first compound 4.29 µg/mL, partner 6.4 µg/mL, main component drawn
  fitness: 0.168
[5]; first compound 5 µg/mL, partner 0.4275 µg/mL, main component drawn
  fitness: 0.987
[5]; first compound 5 µg/mL, partner 0.855 µg/mL, main component drawn
  fitness: 0.977
[5]; first compound 5 µg/mL, partner 1.71 µg/mL, main component drawn
  fitness: 0.119
